Source: patent publication US12685708B2, “Skin care composition” (BEIERSDORF AG, priority 2019, dated 2026)

Experiments:
Type in all cases: cell-based, Cutibacterium acnes
[1] = tested on: C. acnes strain C3; assay: Evaluation of the minimum inhibitory concentration (MIC) of cosmetic excipients; settings: % w/vol, incubated anaerobically 3 days at 37° C., scored for growth or complete growth inhibition
Method: (§1) In microbiology, the MIC is the lowest concentration of a chemical which prevents visible growth of bacterium. The resulted MIC value depends both on the microorganism and the test compound. The MIC is determined by preparing concentrations series of the test compound in vitro, incubating the solutions with the separate batches of cultured bacteria, and measuring the results using agar dilution or broth microdilution. For the experiments with C. acnes strains C3 and K8, media comprising yeast extract soy peptone and dextrose were used. The MIC is determined by turbidity.
(§2) A total of 125 cosmetic excipients were tested for their compatibility with C. acnes strains C3 and K8. Hydrophilic compounds were tested in a 96-well plate liquid broth format, poorly soluble compounds were pre-dissolved in DMSO before dilution in liquid broth and hydrophobic or solid compounds were tested in an agar well diffusion test assay. The different dilutions of the test excipients in media were prepared in Falcon tubes and then distributed in a deep well plate using a multistepper. Each well received 1.2 ml and was subsequently inoculated with 120 μl of C. acnes bacteria suspension (strain C3 and K8). From the deep well plate 200 μl were transferred in each well of a clear 96 well replicate plate. The leftover was discarded. The plates were then incubated anaerobically for 3 days at 37° C. Following incubation, the test plates were visually examined and wells were scored for growth or complete growth inhibition to define the minimum inhibitory concentration.
(§3) These excipients are listed in the below table with their compatibility values for C. acnes strains C3 and K8. The compatibility values represent the MIC value of the listed ingredients with the tested C. acnes strains. At this concentration [% w/vol] the tested compound starts interfering with the growth of the tested strains. The compounds can be used in formulations at concentrations below this concentration.

[2] = tested on: C. acnes strain K8; assay: as above; settings: % w/vol, incubated anaerobically 3 days at 37° C., scored for growth or complete growth inhibition
Method: as §1, §2, §3

[3] = tested on: freeze-dried C. acnes strains K8 and C3; assay: Reactivation assay of freeze dried bacteria in formulations (CFU count); settings: statement in the description
Source text: For this purpose, a freeze-dried powder of C. acnes strains K8 and C3 was produced and mixed with other ingredients as indicated below. Ingredients are listed in % (w/w). The formulations were provided in two pre-mixed compositions A and B that were finally mixed with each other. The following formulations were made: […]
The formulations are depicted in the form of a table in FIG. 1. For formulations 1-11, the CFU target value was 1×10^7. For formulations 12-15, the CFU target value was 1×10^6. A CFU count was performed directly after mixing the formulation to assess the effect of the prototype formulation on the revival and subsequent stability rate of the bacteria. Briefly, the formula component A (lyophilisate/oil suspension) and the formula component B (hydrogel/aqueous solution) are mixed together and well vortexed. Directly after mixing an aliquot is removed and transferred to 0.9% NaCl. Further dilutions are plated on COST agar plates and incubated anaerobically at 37° C. for 5 days.
Similar to the formulations tested in Example 2, another set of 11 prototype formulations was prepared with higher concentrations of the excipients of the invention. The formulations were tested as described in Example 2 for their impact on reactivation of freeze-dried C. acnes bacteria. As a control, a formulation containing the lyophilisate and low amounts of the excipients was prepared. […]

Row | Molecule | COMPATABILITY VALUE C3 [%] (MIC) [1] | COMPATABILITY VALUE K8 [%] (MIC) [2] | interference with viability and replication capability of the lyophilized or spray-dried bacteria [3]
1 | CCCCCCC(O)CO (stereo not drawn) [caprylyl glycol] | 0.18% | 0.18% | 
2 | O=C(O)CC(O)(CC(=O)O)C(=O)O [citric acid] | 0.33% | 0.08% | 
3 | CC(CO)CO [methylpropanediol] | 4.00% | 4.00% | 
4 | CC(=O)Oc1c(C)c(C)c2c(c1C)CCC(C)(CCC[C@H](C)CCC[C@H](C)CCCC(C)C)O2 (stereo partly drawn) [tocopheryl acetate] | 1.00% | 1.00% | 
5 | ethylhexyl cocoate | 10.00% | 10.00% | 
6 | peg-40 hydrogenated castor oil | 1.00% | 1.00% | does not interfere
7 | tocopherol | 1.50% | 1.50% | 
